8 compounds from patent US4539331A, “Imidazole carboxamide derivatives and pharmaceutical compositions thereof” (priority 1981, dated 1985) can be followed below.

Each structure is given as a SMILES string. Read-outs that look alike come from different tables or passages of the source.

One data set deals with writhing. As to the kind of experiment: writhing test (analgesic activity). The data set is classed as in vivo, mouse. The conditions noted are these: for ED50: Mus musculus, ip. Background: Writhing tests count abdominal constrictions after an irritant is injected.
The nature of the next data set: acute toxicity, mouse. The settings on record: in vivo. From the text:
(§1) The acute toxicity in the rat and mouse is low

A short description of another data set: solubility. The data set is classed as physicochemical.
Another data set in a line: acute toxicity, rat. The settings on record: in vivo.
Text: as §1

The test system of a further data set is beer yeast induced fever. Description: beer yeast induced fever (antipyretic activity). The format is in vivo.
The test system of a further data set is carrageenin oedema. Description: carrageenin oedema method (anti-inflammatory activity). The data set is classed as in vivo. The settings on record: Rattus norvegicus; oral. Background: The carrageenan paw model is a standard test of acute inflammation.
A further data set deals with gastric mucous. The data set is classed as in vivo, rat. From the text: In the gastric tolerance test, the product was compared with aspirin and phenylbutazone on the rat, with oral administration.

By ED50 is commonly meant the dose that gives a 50% effect, or the effect in half of the subjects. As a reminder, the LD50 is the dose at which mortality reaches 50%. With `Cc1ccc(NC(=O)c2nc[nH]c2C)cc1Cl` [Example 1, N-(3-chloro-4-methylphenyl)-5-methyl-4-imidazolecarboxamide], the ED50 with writhing (read-out: ED50) is 30 mg/kg; in the data set on beer yeast induced fever (oral, read-out: ED50), 48 mg/kg; with carrageenin oedema, 60 mg/kg. Further, the “analgesic action relative to aspirin” value with writhing (relative to aspirin) came to 1.5 times. The 50% lethal dose (LD50) in “acute toxicity, mouse” (ip) was 700 mg/kg; in “acute toxicity, mouse” (oral) it was over 8000 mg/kg; in “acute toxicity, rat” (ip), 560 mg/kg; in the data set “acute toxicity, rat” (oral) it was over 12000 mg/kg. Further, the solubility in acetone entry in the data set “solubility” (acetone) was “soluble”. Besides, the “solubility in an acid aqueous medium” value in “solubility” (acid aqueous medium) was “sparingly soluble”. In addition, in the data set “solubility” (chloroform), the solubility in chloroform result is “moderately soluble”. In addition, the solubility in ethanol result in the data set “solubility” (ethanol) is recorded as “soluble”. In addition, in the data set “solubility” (isopropanol), the solubility in isopropanol entry is on record as “soluble”. Moreover, the solubility in methanol entry in “solubility” (methanol) was “soluble”. The solubility in toluene entry in the data set “solubility” (toluene) is “insoluble”. In addition, the solubility in water result in the data set “solubility” (water) is given as “insoluble”. Also, in the data set with beer yeast induced fever (relative to aspirin), the “antipyretic activity relative to aspirin” value is recorded as “three times that of aspirin”. Also, the “antipyretic activity relative to pyramidon” value with beer yeast induced fever (relative to pyramidon) is on record as “slightly superior to that of pyramidon”.
As for `Cc1ccc(F)cc1NC(=O)c1nc[nH]c1C` [Example 5c, N-(5-fluoro-2-methylphenyl)-5-methyl-4-imidazolecarboxamide], in the data set on writhing (read-out: ED50), the ED50 was found to be 50 mg/kg.
In turn, `COc1ccc(Cl)cc1NC(=O)c1nc[nH]c1C` [Example 5a, N-(5-chloro-2-methoxyphenyl)-5-methyl-4-imidazolecarboxamide] gave a median effective dose (ED50) in the data set on carrageenin oedema of 78 mg/kg.
`Cc1cc(NC(=O)c2nc[nH]c2C)ccc1[N+](=O)[O-]` [Example 5b, N-(3-methyl-4-nitrophenyl)-5-methyl-4-imidazolecarboxamide]: the ED50 worked out at 35 mg/kg with writhing (read-out: ED50) and 58 mg/kg with beer yeast induced fever (oral, read-out: ED50).
Consider `CC(=O)Oc1ccccc1C(=O)O` [Aspirin, reference compound], for which the ED50 in the data set on writhing amounted to 45 mg/kg; in the data set with beer yeast induced fever (po), 140 mg/kg. In addition, in the data set with gastric mucous (oral, 1000 mg/kg), the gastric alterations result is “haemorrhage spots, congestion and oedema”.
For the compound `Cc1c(N(C)C)c(=O)n(-c2ccccc2)n1C` [Pyramidon, reference compound], the ED50 in the data set on beer yeast induced fever (oral, read-out: ED50) amounted to 55 mg/kg.
As for `CCCCC1C(=O)N(c2ccccc2)N(c2ccccc2)C1=O` [Phenylbutazone, reference compound], in the data set with carrageenin oedema, it took a dose of 45 mg/kg to reach the 50% effect level (ED50). For the same compound, in the data set with gastric mucous (rat, in vivo, po, 200 mg/kg), the gastric alterations result is “haemorrhage spots, congestion and oedema”.
On to `Cc1[nH]cnc1C(=O)Nc1ccc(Cl)c([N+](=O)[O-])c1` [Example 5h, N-(4-chloro-3-nitrophenyl)-5-methyl-4-imidazolecarboxamide], for which the ED50 in the data set with writhing (read-out: ED50) was determined as 33 mg/kg.
